The values below are quoted from earlier work in patent US9629818B2, “Pharmaceutical composition of tapentadol for parenteral administration” (TORRENT PHARMACEUTICALS LTD, priority 2012, dated 2017).

Bounds are passed on as bounds.

The conditions of series [1]: in vivo.
For series [2] the following is noted: given orally.

Regarding `CC[C@@H](c1cccc(O)c1)[C@@H](C)CN(C)C` [tapentadol, (−)-(1R,2R)-3-(3-dimethylamino-1-ethyl-2-methyl-propyl)-phenol], the “duration of analgesic effect” value in series [1] is at most 12 h. Also, the parent compound metabolized entry in series [2] is given as “About 97%”.
